# Reference: US20240077500A1, “METHOD FOR THE DETECTION AND TREATMENT OF PROTEINOPATHIES” (Women & Infants Hospital of Rhode Island, priority 2021, published 2024)
# How the values were obtained:
# SHSY neuronal cells = test: AD serum-induced protein aggregation in SHSY neuronal cells, ProteoStat staining; assay type: cell-based; details: 50 mM trehalose, 10% AD patient serum, 24 hours
# Description: (§1) Primary human trophoblasts and SHSY cells were cultured and washed with serum-free media at 70% confluency. The cells were then cultured with 10% serum samples from AD patients for 72 hours (trophoblasts) and 24 hours (neuronal cells), respectively, in the absence or presence of 50 mM trehalose. Cells were stained with ProteoStat dye and evaluated for accumulation of protein aggregates.
# [1] = tested on: hTAU transgenic mouse model; test: Preeclampsia serum-induced onset of AD features in the hTAU transgenic mouse model (Example 7); assay type: in vivo; details: weekly trehalose (2 mg/kg) from 2 months (60 day old mice) for one month; preeclampsia serum injected at 1 month
# Description: The efficacy with which trehalose inhibits the onset of Alzheimer's disease (AD) features was assessed using the hTAU transgenic mouse model at ages of 3, 6, 9, and 12 months. The onset of AD features were preempted by the administration of serum obtained from pregnant women with normal pregnancy or preeclampsia.
# hTAU mice [2] = test: Ledge assay (sensorimotor coordination) in e-PES injected hTAU mice; assay type: in vivo, mouse; details: for falling off of the ledge / mobility: e-PES+trehalose mice
# Description: FIGS. 22A-22C provide the results of sensory-motor coordination studies utilizing a ledge assay. hTAU mice were compared to hTAU mice injected with e-PES at 10-12 weeks age (n=5) with or without trehalose administration. […] FIG. 22C provides a bar graph comparing time spent on the ledge (seconds) for each subset of mice (i.e., hTAU control, PES 49, and PES 49+trehalose).
# Sensorimotor coordination deficits were detected by the ledge assay. In the ledge assay, mice were placed on the elevated cage's ledge at a height of 35 cm and width of 0.8 cm and their movement was monitored. Each mouse was tested three times (approximately 20 seconds) and scored from 0 to 3 depending on the severity of deficits.
# (§2) 100 μL e-PES (early-onset preeclampsia serum) was injected in 10-12 weeks old non-pregnant female hTAU mice. The i.p. injection was performed once a week for 4 weeks. Trehalose treatment (2 g/kg/week) or saline (100 μL/week) was initiated after completion of 4 weeks of e-PES injection cycle. At the end of the trehalose treatment, a group of mice (n=5 for each group) was sacrificed after 2 weeks of resting biological activity (FIG. 18).
# (§3) Another two groups were kept to assess their behavioral and brain pathological outcomes (i.e., nesting behavior and/or sensory motor coordination).
# hTAU mice [3] = test: Nesting activity assay in e-PES injected hTAU mice; assay type: in vivo, mouse
# Description: FIG. 21A: provides photographs of representative nests constructed by the mice; FIG. 21B and FIG. 21D provide bar graphs showing nestlet score for 4-month old (FIG. 21B) and 6-month old (FIG. 21D) mice; FIG. 21C and FIG. 21E provide bar graphs showing untorn nestlet weight for 4-month old (FIG. 21C) and 6-month old (FIG. 21E) mice.
# Nesting activity was assessed using a modified scoring criteria to rate the quality of nest construction and the amount of torn nestlet material. Following the nocturnal period, untorn nesting material was weighed, and nests were photographed for scoring on a 0-7 ordinal scale modified from published criteria. Nestlet scores and weights are shown as mean+SEM; *p<0.05 versus controls. Preeclampsia serum was used to observe significant effects in hTAU mice without waiting for 9-12 months of age.
# as §2, §3
# human trophoblasts = test: AD serum-induced protein aggregation in primary human trophoblasts, ProteoStat staining; assay type: cell-based; details: 50 mM trehalose, 10% AD patient serum, 72 hours
# Description: as §1
# [4] = for humans, by the FDA, based on safety studies in mice, rats and rabbits, including during pregnancy; cited from earlier work
# hTAU mice [5] = test: Brain pathology (AT180 hyperphosphorylated Tau staining of mPFC) in e-PES injected hTAU mice (Example 8); assay type: in vivo, mouse; details: trehalose 2 g/kg/week i.p. for 4 weeks after 4 weeks of e-PES injection
# Description: 10-12 week old non-pregnant female hTAU mice were injected with e-PE serum (100 μL/week for 4 weeks) followed by treatment (i.p injection) with either saline (100 μL /week) or Trehalose (2 g/kg/week) for 4 weeks, followed by 2 weeks of resting period prior to biological assessments. Medial prefrontal cortex (mPFC) was stained for hyperphosphorylated Tau (using antibody AT180 which detects Tau hyperphosphorylation at T231 & S235). FIG: 19A: Confocal images stained with AT180 are shown that correspond to the mPFC of control (upper), e-PES (middle), and e-PES+Trehalose (bottom), with quantification data in mPFC being present at right panels; inset images are the high magnification image of the selected area; FIG. 19B: provides a bar graph showing the number of AT180 positive cells/0.1 mm^2 in hTAU control, PES 49, and PES 49+trehalose treated mice.
# 10-12 weeks old non-pregnant female hTAU mice were injected with e-PE serum (100 μL/week for 4 weeks) followed by treatment (i.p injection) with either saline (100 μL/week) or Trehalose (2 g/kg/week) for 4 weeks, followed by 8-10 weeks of resting period prior to biological assessment. Medial prefrontal cortex (mPFC) was stained for hyperphosphorylated Tau (using antibody AT180 which detects Tau hyperphosphorylation at T231 & S235). […]
# Brain pathologies were evaluated in a group of mice at 4 and 6 months of age.
# [6] = e-PES alone compared to control and e-PES+trehalose treated hTAU mice (n=5), 6 months
structure (smiles),measurement,setting,value
"OC[C@H]1O[C@H](O[C@H]2O[C@H](CO)[C@@H](O)[C@H](O)[C@H]2O)[C@H](O)[C@@H](O)[C@@H]1O [trehalose, (2R,2′R,3 S,3′S,4S,4′S,5R,5′R,6R,6′R)-6,6′-oxybis(2-(hydroxymethyl)tetrahydro-2H-pyran-3,4,5-triol)]",AD serum-caused protein aggregation,SHSY neuronal cells,could be inhibited
same,onset of AD features,[1],inhibited the onset of AD features
same,falling off of the ledge / mobility,hTAU mice [2],"immobile, not falling off"
same,falling off of the ledge / mobility,hTAU mice [2]; listed as Trehalose,did not fall off of the ledge frequently
same,motor activity,hTAU mice [2]; trehalose 2 g/kg/week for 4 weeks after e-PES injection,could not restore motor activity completely
same,sensorimotor coordination deficits,hTAU mice [2]; trehalose 2 g/kg/week for 4 weeks after e-PES injection at 10-12 weeks of age,partially prevented
same,time spent on the ledge,hTAU mice [2]; trehalose treated mice (n=5) compared to only e-PES treated mice,significantly more time on the ledge
same,nestlet score at 4 months of age,"hTAU mice [3]; between control and indicated treatment groups, 4 month old hTAU mice",no significant changes
same,nestlet score at 6 months of age,hTAU mice [3]; [6],significantly lower nestlet scores
same,untorn nestlet weight at 6 months of age,hTAU mice [3]; [6],significantly greater untorn nestlet weights
same,cognitive decline,"hTAU mice [3]; limited (4 weeks) treatment with trehalose, 2 g/kg/week",improved cognitive decline
same,AD serum-caused protein aggregation,human trophoblasts,could be inhibited
same,safety status,[4],generally regarded as safe
same,hTAU burden,hTAU mice [5],reduced hTAU burdern
